Test system: MV-4-11 cells
Test: Gene expression microarray analysis (Affymetrix PrimeView) and GSEA
Type: cell-based, human
Parameters: RFU PODN (11730768_x_at) / Fold change /veh PODN (11730768_x_at) / RFU LINC00158 (11744669_a_at) / Fold change /veh LINC00158 (11744669_a_at) / RFU DUSP10 (11751237_a_at) / Fold change /veh DUSP10 (11751237_a_at) / RFU ID3 (11757404_x_at) / Fold change /veh ID3 (11757404_x_at) / RFU PLEKHG5 (11737974_s_at) / Fold change /veh PLEKHG5 (11737974_s_at) / RFU LRRC4B (11730491_at) / Fold change /veh LRRC4B (11730491_at) / RFU GIMAP4 (11747438_a_at) / Fold change /veh GIMAP4 (11747438_a_at) / RFU KRT8 (11758183_x_at) / Fold change /veh KRT8 (11758183_x_at) / RFU CNN1 (11734310_a_at) / Fold change /veh CNN1 (11734310_a_at) / RFU VPS37D (11726825_at) / Fold change /veh VPS37D (11726825_at) / RFU C10orf10 (11716522_x_at) / Fold change /veh C10orf10 (11716522_x_at) / RFU KIR2DL2 /// KIR2DL4 /// KIR2DL5A /// KIR2DL5B /// KIR2DS1 /// KIR2DS2 /// KIR2DS3 /// KIR2DS4 /// KIR3DL3 /// KIR3DL3 /// KIR3DS1 (11738374_at) / Fold change /veh KIR2DL2 /// KIR2DL4 /// KIR2DL5A /// KIR2DL5B /// KIR2DS1 /// KIR2DS2 /// KIR2DS3 /// KIR2DS4 /// KIR3DL3 /// KIR3DL3 /// KIR3DS1 (11738374_at) / RFU C1QL1 (11718748_at) / Fold change /veh C1QL1 (11718748_at) / RFU TMPRSS4 (11747572_a_at) / Fold change /veh TMPRSS4 (11747572_a_at) / RFU HAMP (11756126_x_at) / Fold change /veh HAMP (11756126_x_at) / RFU RNFT2 (11725882_a_at) / Fold change /veh RNFT2 (11725882_a_at) / RFU NR4A2 (11747474_a_at) / Fold change /veh NR4A2 (11747474_a_at) / RFU ABCC12 (11746883_a_at) / Fold change /veh ABCC12 (11746883_a_at) / RFU TMEM136 (11760407_x_at) / Fold change /veh TMEM136 (11760407_x_at) / RFU CLDN22 /// WWC2 (11732394_at) / Fold change /veh CLDN22 /// WWC2 (11732394_at) / RFU HLA-DPB1 (11760878_x_at) / Fold change /veh HLA-DPB1 (11760878_x_at) / RFU SPINT1 (11716480_a_at) / Fold change /veh SPINT1 (11716480_a_at) / RFU GAP43 (11754022_s_at) / Fold change /veh GAP43 (11754022_s_at) / RFU A4GNT (11735810_at) / Fold change /veh A4GNT (11735810_at) / RFU PRB3 (11715151_x_at) / Fold change /veh PRB3 (11715151_x_at) / RFU TUBB4B (11761932_at) / Fold change /veh TUBB4B (11761932_at) / RFU CAPN14 (11732068_a_at) / Fold change /veh CAPN14 (11732068_a_at) / RFU TMCC2 (11721928_a_at) / Fold change /veh TMCC2 (11721928_a_at) / RFU IRGQ (11745062_a_at) / Fold change /veh IRGQ (11745062_a_at) / RFU FAM174B (11720279_a_at) / Fold change /veh FAM174B (11720279_a_at) / RFU TMPRSS4 (11748680_a_at) / Fold change /veh TMPRSS4 (11748680_a_at) / RFU FAM212B (11763350_a_at) / Fold change /veh FAM212B (11763350_a_at) / RFU PLEKHG5 (11743358_a_at) / Fold change /veh PLEKHG5 (11743358_a_at) / RFU ZSCAN30 (11745921_a_at) / Fold change /veh ZSCAN30 (11745921_a_at) / RFU CMKLR1 (11741424_a_at) / Fold change /veh CMKLR1 (11741424_a_at) / RFU LOC101060620 /// MAPK8IP1 (11723275_at) / Fold change /veh LOC101060620 /// MAPK8IP1 (11723275_at) / RFU SPTSSB (11747773_x_at) / Fold change /veh SPTSSB (11747773_x_at) / RFU PRSS12 (11739890_at) / Fold change /veh PRSS12 (11739890_at) / RFU BIN1 (11741810_x_at) / Fold change /veh BIN1 (11741810_x_at) / RFU WNT11 (11732464_a_at) / Fold change /veh WNT11 (11732464_a_at) / RFU C10orf10 (11716521_a_at) / Fold change /veh C10orf10 (11716521_a_at) / RFU C5orf56 (11738089_at) / Fold change /veh C5orf56 (11738089_at) / RFU CYB561 (11721691_x_at) / Fold change /veh CYB561 (11721691_x_at) / RFU ANKRD19P (11752326_a_at) / Fold change /veh ANKRD19P (11752326_a_at) / RFU OR2T12 /// OR2T33 /// OR2T8 (11738714_s_at) / Fold change /veh OR2T12 /// OR2T33 /// OR2T8 (11738714_s_at) / RFU VCAN (11748164_a_at) / Fold change /veh VCAN (11748164_a_at) / RFU JSRP1 (11732532_at) / Fold change /veh JSRP1 (11732532_at) / RFU KRTAP10-11 (11738290_x_at) / Fold change /veh KRTAP10-11 (11738290_x_at) / RFU MYO3A (11730013_a_at) / Fold change /veh MYO3A (11730013_a_at) / RFU EBF3 (11725865_a_at) / Fold change /veh EBF3 (11725865_a_at) / RFU CAMK2N1 (11719241_x_at) / Fold change /veh CAMK2N1 (11719241_x_at) / RFU C5orf56 (11738088_a_at) / Fold change /veh C5orf56 (11738088_a_at) / RFU OLFML3 (11715873_a_at) / Fold change /veh OLFML3 (11715873_a_at) / RFU LOC100653217 /// NTM (11731650_a_at) / Fold change /veh LOC100653217 /// NTM (11731650_a_at) / RFU MAPK11 (11762145_a_at) / Fold change /veh MAPK11 (11762145_a_at) / RFU FIZ1 (11724087_x_at) / Fold change /veh FIZ1 (11724087_x_at) / RFU OASL (11726364_x_at) / Fold change /veh OASL (11726364_x_at) / RFU SOX15 (11748057_x_at) / Fold change /veh SOX15 (11748057_x_at) / RFU CD79A (11719716_a_at) / Fold change /veh CD79A (11719716_a_at) / RFU HIST1H1D (11736915_at) / Fold change /veh HIST1H1D (11736915_at) / RFU CASKIN2 (11723855_a_at) / Fold change /veh CASKIN2 (11723855_a_at) / RFU LOC730098 (11760151_x_at) / Fold change /veh LOC730098 (11760151_x_at) / RFU OR4N2 (11742367_at) / Fold change /veh OR4N2 (11742367_at) / RFU PRRT2 (11749266_a_at) / Fold change /veh PRRT2 (11749266_a_at) / RFU SNX32 (11753110_a_at) / Fold change /veh SNX32 (11753110_a_at) / RFU CDHR5 (11726645_a_at) / Fold change /veh CDHR5 (11726645_a_at) / RFU RCAN1 (11760418_a_at) / Fold change /veh RCAN1 (11760418_a_at) / RFU FAM167A (11723789_a_at) / Fold change /veh FAM167A (11723789_a_at) / RFU FAM26E (11764081_at) / Fold change /veh FAM26E (11764081_at) / RFU ISYNA1 (11749810_s_at) / Fold change /veh ISYNA1 (11749810_s_at) / RFU ACY1 (11761880_at) / Fold change /veh ACY1 (11761880_at) / RFU 11764098_at / Fold change /veh 11764098_at / RFU SAMD14 (11745864_x_at) / Fold change /veh SAMD14 (11745864_x_at) / RFU NPB (11741838_a_at) / Fold change /veh NPB (11741838_a_at) / RFU TMPRSS6 (11731388_a_at) / Fold change /veh TMPRSS6 (11731388_a_at) / RFU KRTAP10-2 (11738614_at) / Fold change /veh KRTAP10-2 (11738614_at) / RFU ARHGAP8 /// PRR5-ARHGAP8 (11727945_x_at) / Fold change /veh ARHGAP8 /// PRR5-ARHGAP8 (11727945_x_at) / RFU KRTAP5-7 /// NADSYN1 (11734609_at) / Fold change /veh KRTAP5-7 /// NADSYN1 (11734609_at) / RFU RASL12 (11751679_a_at) / Fold change /veh RASL12 (11751679_a_at) / RFU CDKN2B (11736163_a_at) / Fold change /veh CDKN2B (11736163_a_at) / RFU PRF1 (11729649_at) / Fold change /veh PRF1 (11729649_at) / RFU, ZNF638 /// ZNF638-IT1 / Fold change vs veh, ZNF638 /// ZNF638-IT1 / RFU, PANK3 / Fold change vs veh, PANK3 / RFU, SH3YL1 / Fold change vs veh, SH3YL1 / RFU, ZEB2 / Fold change vs veh, ZEB2 / RFU, NRIP1 / Fold change vs veh, NRIP1 / RFU, PTTG1IP / Fold change vs veh, PTTG1IP / RFU, CAPN2 / Fold change vs veh, CAPN2 / RFU, MED14 / Fold change vs veh, MED14 / RFU, SNORA58 / Fold change vs veh, SNORA58 / RFU, C1orf63 / Fold change vs veh, C1orf63 / RFU, LRRFIP1 / Fold change vs veh, LRRFIP1 / RFU, NDUFAF7 / Fold change vs veh, NDUFAF7 / RFU, SLC12A2 / Fold change vs veh, SLC12A2 / RFU, IBTK / Fold change vs veh, IBTK / RFU, ESF1 / Fold change vs veh, ESF1 / Fold change vs veh, TMEM50B / RFU, TAOK1 / Fold change vs veh, TAOK1 / RFU, ACBD3 / Fold change vs veh, ACBD3 / RFU, TMA16 / Fold change vs veh, TMA16 / RFU, RWDD3 / Fold change vs veh, RWDD3 / RFU, BCAT1 / Fold change vs veh, BCAT1 / RFU, EDEM3 / Fold change vs veh, EDEM3 / RFU, TMEM33 / Fold change vs veh, TMEM33 / RFU, WDR75 / Fold change vs veh, WDR75 / RFU, AHCTF1 / Fold change vs veh, AHCTF1 / RFU, TFRC / Fold change vs veh, TFRC / RFU, ZDHHC17 / Fold change vs veh, ZDHHC17 / RFU, NOM1 / Fold change vs veh, NOM1 / RFU, ARL8B / Fold change vs veh, ARL8B / RFU, ZBTB11 / Fold change vs veh, ZBTB11 / RFU, TAMM41 / Fold change vs veh, TAMM41 / RFU, KIAA1704 /// LOC100996395 / Fold change vs veh, KIAA1704 /// LOC100996395 / RFU, ING1 / Fold change vs veh, ING1 / RFU, TRMT61B / Fold change vs veh, TRMT61B / RFU, FUBP3 / Fold change vs veh, FUBP3 / RFU, TP53 / Fold change vs veh, TP53 / RFU, TNKS2 / Fold change vs veh, TNKS2 / RFU, ZFP14 / Fold change vs veh, ZFP14 / RFU, ACTR2 / Fold change vs veh, ACTR2 / RFU, PPP3R1 / Fold change vs veh, PPP3R1 / RFU, PIK3R1 / Fold change vs veh, PIK3R1 / RFU, HNRNPA1 / Fold change vs veh, HNRNPA1 / RFU, RNF170 / Fold change vs veh, RNF170 / RFU, ZNF28 / Fold change vs veh, ZNF28 / RFU, RNGTT / Fold change vs veh, RNGTT / RFU, OGT / Fold change vs veh, OGT / RFU, BRD1 / Fold change vs veh, BRD1 / RFU, MARS / Fold change vs veh, MARS / RFU, ZNF655 / Fold change vs veh, ZNF655 / RFU, FAHD1 / Fold change vs veh, FAHD1 / RFU, BDP1 / Fold change vs veh, BDP1 / RFU, LRRCC1 / Fold change vs veh, LRRCC1 / RFU, ARID1A / Fold change vs veh, ARID1A / RFU, ZNF146 / Fold change vs veh, ZNF146 / RFU, ZNF330 / Fold change vs veh, ZNF330 / RFU, GPN3 / Fold change vs veh, GPN3 / RFU, C9orf123 / Fold change vs veh, C9orf123 / RFU, N4BP2L2 / Fold change vs veh, N4BP2L2 / RFU, ARFIP1 / Fold change vs veh, ARFIP1 / RFU, FAM179B / Fold change vs veh, FAM179B / RFU, BCL10 / Fold change vs veh, BCL10 / RFU, UHRF1BP1L / Fold change vs veh, UHRF1BP1L / RFU, BET1 / Fold change vs veh, BET1 / RFU, CNOT2 / Fold change vs veh, CNOT2 / RFU, ZNF268 / Fold change vs veh, ZNF268 / Fold change vs veh, ZNF507 / RFU, DGCR2 / Fold change vs veh, DGCR2 / RFU, WDSUB1 / Fold change vs veh, WDSUB1 / Fold change vs veh, HSP90B1 /// MIR3652 / RFU, ADSS / Fold change vs veh, ADSS / RFU, GK / Fold change vs veh, GK / RFU, ZNF148 / Fold change vs veh, ZNF148 / RFU, TAF9 / Fold change vs veh, TAF9 / RFU, SLC1A5 / Fold change vs veh, SLC1A5 / RFU, SLMO2 / Fold change vs veh, SLMO2 / RFU, ABCC4 / Fold change vs veh, ABCC4 / RFU, LOC101060439 /// RAP1B / Fold change vs veh, LOC101060439 /// RAP1B / RFU, RFX7 / Fold change vs veh, RFX7 / RFU, GTPBP10 / Fold change vs veh, GTPBP10 / RFU, CNEP1R1 / Fold change vs veh, CNEP1R1 / RFU, BIVM-ERCC5 /// ERCC5 / Fold change vs veh, BIVM-ERCC5 /// ERCC5 / RFU, ILF3 / Fold change vs veh, ILF3 / RFU 11762660_at / Fold change /veh 11762660_at / RFU VCAN (11757783_s_at) / Fold change /veh VCAN (11757783_s_at) / RFU DDX43 (11728927_at) / Fold change /veh DDX43 (11728927_at) / RFU KRT8 (11758188_x_at) / Fold change /veh KRT8 (11758188_x_at) / RFU NKD1 (11759106_at) / Fold change /veh NKD1 (11759106_at) / RFU SRD5A1 (11742802_a_at) / Fold change /veh SRD5A1 (11742802_a_at) / RFU TPSAB1 /// TPSB2 (11721975_s_at) / Fold change /veh TPSAB1 /// TPSB2 (11721975_s_at) / RFU GSTM3 (11746129_a_at) / Fold change /veh GSTM3 (11746129_a_at) / RFU IL23R (11737362_x_at) / Fold change /veh IL23R (11737362_x_at) / RFU TMEM51 (11727254_a_at) / Fold change /veh TMEM51 (11727254_a_at) / RFU PIWIL2 (11732686_x_at) / Fold change /veh PIWIL2 (11732686_x_at) / RFU ORM1 (11744905_x_at) / Fold change /veh ORM1 (11744905_x_at) / RFU CCDC152 (11743942_at) / Fold change /veh CCDC152 (11743942_at) / RFU ECM1 (11717891_a_at) / Fold change /veh ECM1 (11717891_a_at) / RFU IL23R (11748794_a_at) / Fold change /veh IL23R (11748794_a_at) / RFU TNFAIP8L3 (11732012_x_at) / Fold change /veh TNFAIP8L3 (11732012_x_at) / RFU MBOAT4 (11741988_at) / Fold change /veh MBOAT4 (11741988_at) / RFU 11764193_at / Fold change /veh 11764193_at / RFU TMEM53 (11763286_at) / Fold change /veh TMEM53 (11763286_at) / RFU MAGEB2 (11727129_at) / Fold change /veh MAGEB2 (11727129_at) / RFU TMEM200A (11744735_a_at) / Fold change /veh TMEM200A (11744735_a_at) / RFU CCDC152 (11751479_a_at) / Fold change /veh CCDC152 (11751479_a_at) / RFU FAM211A (11726209_a_at) / Fold change /veh FAM211A (11726209_a_at) / RFU RGS16 (11746705_a_at) / Fold change /veh RGS16 (11746705_a_at) / RFU VCAN (11755009_s_at) / Fold change /veh VCAN (11755009_s_at) / RFU RHOB (11743442_s_at) / Fold change /veh RHOB (11743442_s_at) / RFU RGS16 (11720943_a_at) / Fold change /veh RGS16 (11720943_a_at) / RFU RGS16 (11720944_at) / Fold change /veh RGS16 (11720944_at) / RFU, VPS4B / Fold change vs veh, VPS4B / RFU, CREB1 / Fold change vs veh, CREB1 / RFU, DNAJC13 / Fold change vs veh, DNAJC13 / RFU, GNAQ / Fold change vs veh, GNAQ / RFU, CDK5R1 / Fold change vs veh, CDK5R1 / RFU, ZRANB3 / Fold change vs veh, ZRANB3 / RFU, CUL4A / Fold change vs veh, CUL4A / RFU, CCNY / Fold change vs veh, CCNY / RFU, UFL1 / Fold change vs veh, UFL1 / RFU, COG3 / Fold change vs veh, COG3 / RFU, DIAPH2 / Fold change vs veh, DIAPH2 / RFU, SKA2 / Fold change vs veh, SKA2 / RFU, AFF3 / Fold change vs veh, AFF3 / RFU, LMF1 / Fold change vs veh, LMF1 / RFU, IPO11 / Fold change vs veh, IPO11 / RFU, DFFB / Fold change vs veh, DFFB / RFU, FOXP1 / Fold change vs veh, FOXP1 / RFU, CARD8 / Fold change vs veh, CARD8 / RFU, STRN3 / Fold change vs veh, STRN3 / RFU, ADK / Fold change vs veh, ADK / RFU, RASSF2 / Fold change vs veh, RASSF2 / RFU, WIPF1 / Fold change vs veh, WIPF1 / RFU, LARP1B / Fold change vs veh, LARP1B / RFU, RASA1 / Fold change vs veh, RASA1 / RFU, RB1 / Fold change vs veh, RB1 / RFU, PPFIA1 / Fold change vs veh, PPFIA1 / RFU, MAT2A / Fold change vs veh, MAT2A / RFU, CCT5 / Fold change vs veh, CCT5 / RFU, WDR92 / Fold change vs veh, WDR92 / RFU, CUX1 / Fold change vs veh, CUX1 / RFU, TTC7A / Fold change vs veh, TTC7A / RFU, TMEM135 / Fold change vs veh, TMEM135 / RFU, DEPTOR / Fold change vs veh, DEPTOR / RFU, CPM / Fold change vs veh, CPM / RFU, DNAJB6 / Fold change vs veh, DNAJB6 / RFU, CACNA2D3 / Fold change vs veh, CACNA2D3 / RFU, DTX4 / Fold change vs veh, DTX4 / RFU, TFCP2 / Fold change vs veh, TFCP2 / RFU, GMCL1 /// GMCL1P1 / Fold change vs veh, GMCL1 /// GMCL1P1 / RFU, AEBP2 / Fold change vs veh, AEBP2 / RFU, SNHG1 /// SNORD22 /// SNORD25 /// SNORD26 /// SNORD27 /// SNORD28 /// SNORD29 /// SNORD31 / Fold change vs veh, SNHG1 /// SNORD22 /// SNORD25 /// SNORD26 /// SNORD27 /// SNORD28 /// SNORD29 /// SNORD31 / Fold change (Aza/veh), C12orf56 (ProbeSet 11735607_a_at) / Fold change (ACY-1035/veh), C12orf56 (ProbeSet 11735607_a_at) / Fold change (Aza/veh), FGFR1OP (ProbeSet 11751329_s_at) / Fold change (ACY-1035/veh), FGFR1OP (ProbeSet 11751329_s_at) / Fold change (Aza/veh), VPS36 (ProbeSet 11739960_a_at) / Fold change (ACY-1035/veh), VPS36 (ProbeSet 11739960_a_at) / RFU SYPL1 (11715823_x_at) / Fold change /veh SYPL1 (11715823_x_at) / RFU IGFBP7 (11715501_s_at) / Fold change /veh IGFBP7 (11715501_s_at) / RFU REEP3 (11722064_at) / Fold change /veh REEP3 (11722064_at) / RFU IGLL1 (11728026_x_at) / Fold change /veh IGLL1 (11728026_x_at): dose or concentration left out as unconfirmed
Conditions: MV-4-11 cells, 48 hours

In the case of `Nc1ncn([C@@H]2O[C@H](CO)[C@@H](O)[C@H]2O)c(=O)n1` [azacitidine], the “Fold change /veh TNFAIP8L3 (11732012_x_at)” value was 1.33.

From article PMC5218480 (PLoS ONE, 2017)
